US10723741B1, “DNA polymerase IIIC inhibitors and use thereof” (Acurx Pharmaceuticals, LLC, priority 2018, dated 2020)

The compounds below were run against T1, Staphylococcus aureus DNA pol IIIC enzyme (Staphylococcus aureus, UniProt Q5HGG7) (assay: Ki assay for DNA polymerase IIIC (3H-dTTP incorporation, truncated assay)). Settings: Ki = concentration giving 50% inhibition of control activity; range stated for the listed group; read-out: Ki against Staphylococcus aureus DNA pol IIIC enzyme.
T1 construct: The recombinant protein had full length of original protein and a His tag, a thrombin site and a T7 tag at N-terminus; His tag (N); thrombin site (N); T7 tag (N); made in house; host or cells: E. coli BL21 (DE3), plasmid pET-28a(+)
T1 sequence (Q5HGG7 1-1438): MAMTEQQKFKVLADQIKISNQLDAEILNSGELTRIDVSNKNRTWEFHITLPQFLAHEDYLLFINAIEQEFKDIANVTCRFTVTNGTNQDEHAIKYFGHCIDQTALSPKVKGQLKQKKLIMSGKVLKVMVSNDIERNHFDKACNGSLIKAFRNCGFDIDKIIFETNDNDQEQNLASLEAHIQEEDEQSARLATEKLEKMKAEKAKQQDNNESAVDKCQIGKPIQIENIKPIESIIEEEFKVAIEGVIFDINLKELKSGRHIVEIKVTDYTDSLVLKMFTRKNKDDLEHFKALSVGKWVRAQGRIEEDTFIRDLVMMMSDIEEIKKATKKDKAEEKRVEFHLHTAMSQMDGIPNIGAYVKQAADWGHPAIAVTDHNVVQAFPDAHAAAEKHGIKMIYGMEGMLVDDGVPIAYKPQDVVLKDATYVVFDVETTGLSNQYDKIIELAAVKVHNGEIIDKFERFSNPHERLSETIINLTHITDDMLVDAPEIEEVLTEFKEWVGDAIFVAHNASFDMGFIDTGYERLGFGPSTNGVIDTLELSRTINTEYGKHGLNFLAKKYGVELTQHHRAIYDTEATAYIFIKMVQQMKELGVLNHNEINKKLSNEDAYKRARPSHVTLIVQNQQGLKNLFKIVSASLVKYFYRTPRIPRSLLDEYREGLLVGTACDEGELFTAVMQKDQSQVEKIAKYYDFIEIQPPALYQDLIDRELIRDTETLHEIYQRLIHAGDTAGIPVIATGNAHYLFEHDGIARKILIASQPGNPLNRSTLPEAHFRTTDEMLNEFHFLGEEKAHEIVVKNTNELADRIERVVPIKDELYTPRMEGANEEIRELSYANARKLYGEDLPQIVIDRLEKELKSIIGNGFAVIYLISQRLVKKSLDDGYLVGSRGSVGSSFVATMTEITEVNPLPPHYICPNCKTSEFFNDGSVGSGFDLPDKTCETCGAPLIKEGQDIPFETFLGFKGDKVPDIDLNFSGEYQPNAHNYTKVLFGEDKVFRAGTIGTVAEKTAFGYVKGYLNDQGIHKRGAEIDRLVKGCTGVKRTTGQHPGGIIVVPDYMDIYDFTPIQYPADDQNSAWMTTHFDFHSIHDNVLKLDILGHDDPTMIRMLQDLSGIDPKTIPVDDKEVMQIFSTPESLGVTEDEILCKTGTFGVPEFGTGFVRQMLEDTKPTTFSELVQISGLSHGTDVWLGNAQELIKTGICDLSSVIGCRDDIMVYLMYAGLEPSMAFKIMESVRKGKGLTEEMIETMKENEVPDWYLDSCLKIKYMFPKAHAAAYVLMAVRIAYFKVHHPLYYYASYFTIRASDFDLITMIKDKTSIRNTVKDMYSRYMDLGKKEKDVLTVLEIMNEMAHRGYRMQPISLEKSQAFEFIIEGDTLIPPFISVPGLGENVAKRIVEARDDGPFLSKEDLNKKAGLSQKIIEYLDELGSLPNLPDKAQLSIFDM
Format: biochemical
Source text: The ability of a compound to inhibit the activity of DNA pol IIIC enzyme can be tested by using a DNA polymerase assay as described, for example, in Barnes and Brown, Nucl. Acids Res. 1979, 6, 1203-1219; Trantolo et al., J. Med. Chem. 1986, 29, 676-681; Mills et al., J. Bacterial. 1977, 132, 641-649; Low et al., J. Biol. Chem. 1976, 251, 1311-1325. This rapid screening method can use natural or recombinant DNA pol III enzymes in a standard DNA polymerase activity assay. By including a test compound in a side-by-side assay with a control, the effect of the test compound on polymerase activity can be assessed. Compounds with an appropriate level (Ki<[…]) of inhibition of the natural or recombinant bacterial DNA polymerase III are preferred.
The DNA polymerase IIIC coding genes were amplified from genomic DNA. The primers were designed so the 5′-terminal and 3′-terminal contain BamHI and XhoI cutting site respectively. The fragment was directly inserted into expression plasmid pET-28a(+) between BamHI and XhoI sites. The recombinant protein had full length of original protein and a His tag, a thrombin site and a T7 tag at N-terminus. The coding sequence of recombinant protein was confirmed by Sanger sequencing using 8 primers to cover the entire coding regions.
The plasmid was transferred into BL21 (DE3) competent E. coli cells. The positive colonies were inoculated into 1 L LB medium and incubated at 37° C. with 200 rpm rotation to reach OD600=0.6. The inducer IPTG 1 mM was then added to induce the expression for 18 hours at 16° C. The cells were harvested and suspended in lysis buffer (25 mM Tris-HCl pH=7.5, 0.15 M NaCl, 20 mM imidazole, 2 mM β-mecaptoethanol and 1×Roche proteinase inhibitor cocktail). The cells were lyzed by sonication, and the debris was spun down at 50000 g for 1 hour.
The protein was isolated first by passing through the lysate through Ni column. The column was washed with 50 column volume (CV) binding buffer (lysis buffer without proteinase inhibitor) and then 10 CVs of washing buffer (binding buffer with total 40 mM imidazole). The protein was eluted out with elusion buffer (binding buffer with total 300 mM imidazole).
The crude extract was then further purified by size exclusion chromatography using a Superdex 200 increase 10/300 column with 25 mM Tris-HCl pH 7.5, 0.15 M NaCl, 5% Glycerol and 1 mM DTT. The final product was stored as 50-100 μL aliquots at −80° C.
The compounds were dissolved in DMSO to 1 mg/ml (or 10 mg/ml) as compound working solution. On the day of the test, […] of DMSO was added into well A, and 100 μL of DMSO was added into wells B through well H in a round bottom 96 well plate (Corning-3788). An aliquot of 20 μL compound working solution was added into well A and mixed by pipetting. From well A, […] solution was transferred to well B and mixed by pipetting to make a 3 x dilution. The procedure was repeated for well B to well C, and so forth until well G. Well H contained DMSO only. This generated a serial of compound working solutions with concentrations at 100, 33.3, 11.1, 3.7, 1.2, 0.4, 0.14, and 0 μg/ml in pure DMSO. This was deemed the ‘mother plate’.
Using a 96-head pipette station (CyBio), 1 μL compound working solutions were transferred from the mother plate into an identical 96-well plate. This was the ‘testing plate’. The testing plate was kept at room temperature.
The enzyme (DNA polymerase IIIC) samples were taken out from −80° C. freezer. It was thawed and kept on ice. The enzyme was diluted to 0.025-0.06 U/μL with dilution buffer (25 mM Tris-HCl, pH=7.5, 0.15M NaCl, 5% Glycerol, 1 mM DTT). One unit of enzyme is defined as the amount of enzyme could incorporate 250 μmole of dTTP in 30 minutes in a standard assay (with the presence of all nucleotide as substrate, in contrast to “truncated assay” from which dGTP was omitted) in the same system. The diluted enzymes were added into a new 96-well plate (Corning-3788) 20 μL per well. This plate was kept on ice. […]

Row | Ki [nM] | Compound
1 | 53 to 1000 | Cn1ncc2nc(NCc3ccc(Cl)c(Cl)c3)[nH]c(=O)c21 [Compound 2, 5-((3,4-Dichlorobenzyl)amino)-1-methyl-1H-pyrazolo[4,3-d]pyrimidin-7(6H)-one]
2 | 53 to 1000 | Cc1nn(C)c2c(=O)[nH]c(NCc3ccc(Cl)c(Cl)c3)nc12 [Compound 44, 5-((3,4-dichlorobenzyl)amino)-1,3-dimethyl-1H-pyrazolo[4,3-d]pyrimidin-7(6H)-one]
3 | 53 to 1000 | C=CCn1ncc2nc(NCc3ccc(Cl)c(Cl)c3)[nH]c(=O)c21 [Compound 56, 1-allyl-5-((3,4-dichlorobenzyl)amino)-1H-pyrazolo[4,3-d]pyrimidin-7(6H)-one]
4 | 53 to 1000 | O=c1[nH]c(NCc2ccc(Cl)c(Cl)c2)nc2cn[nH]c12 [Compound 77, 5-((3,4-dichlorobenzyl)amino)-1H-pyrazolo[4,3-d]pyrimidin-7(6H)-one]
5 | 53 to 1000 | COCCn1ncc2nc(NCc3ccc(Cl)c(Cl)c3)[nH]c(=O)c21 [Compound 126, 5-((3,4-dichlorobenzyl)amino)-1-(2-methoxyethyl)-1H-pyrazolo[4,3-d]pyrimidin-7(6H)-one]
6 | 53 to 1000 | Cl.O=c1[nH]c(NCc2ccc(Cl)c(Cl)c2)nc2cnn(CC3CNCCO3)c12 (stereo not drawn) [Compound 149, 5-((3,4-dichlorobenzyl)amino)-1-(morpholin-2-ylmethyl)-1H-pyrazolo[4,3-d]pyrimidin-7(6H)-one hydrochloride]
7 | 53 to 1000 | Cl.Cl.O=c1[nH]c(NCc2ccc(Cl)c(Cl)c2)nc2cnn(CCOCCN3CCNCC3)c12 [Compound 167, 5-[(3,4-dichlorophenyl)methylamino]-1-[2-(2-piperazin-1-ylethoxy)ethyl]-6H-pyrazolo[4,3-d]pyrimidin-7-one]
8 | 53 to 1000 | CN(C)CCOCCn1ncc2nc(NCc3ccc(Cl)c(Cl)c3)[nH]c(=O)c21.Cl [Compound 211, 5-((3,4-dichlorobenzyl)amino)-1-(2-(2-(dimethylamino)ethoxy)ethyl)-1H-pyrazolo[4,3-d]pyrimidin-7(6H)-one hydrochloride]
9 | 53 to 1000 | O=c1[nH]c(NCc2ccc(Cl)c(Cl)c2)nc2cnn(-c3ccccc3)c12 [Compound 212, 5-[(3,4-dichlorophenyl)methylamino]-1-phenyl-6H-pyrazolo[4,3-d]pyrimidin-7-one]
10 | 53 to 1000 | O=c1[nH]c(NCc2ccc(Cl)c(Cl)c2)nc2cnn(C3CC3)c12 [Compound 213, 1-Cyclopropyl-5-((3,4-dichlorobenzyl)amino)-1H-pyrazolo[4,3-d]pyrimidin-7(6H)-one]
11 | 53 to 1000 | O=c1[nH]c(NCc2ccc(Cl)c(Cl)c2)nc2cnn(C3CCCC3)c12 [Compound 214, 1-cyclopentyl-5-((3,4-dichlorobenzyl)amino)-1H-pyrazolo[4,3-d]pyrimidin-7(6H)-one]
12 | 53 to 1000 | COC(=O)CCCCn1ncc2nc(NCc3ccc(Cl)c(Cl)c3)[nH]c(=O)c21 [Compound 218, methyl 5-[5-[(3,4-dichlorophenyl)methylamino]-7-oxo-6H-pyrazolo[4,3-d]pyrimidin-1-yl]pentanoate]
13 | 53 to 1000 | Cl.O=c1[nH]c(NCc2ccc(Cl)c(Cl)c2)nc2cnn(C3CCN(C4CCOCC4)CC3)c12 [Compound 242, 5-((3,4-dichlorobenzyl)amino)-1-(1-(tetrahydro-2H-pyran-4-yl)piperidin-4-yl)-1H-pyrazolo[4,3-d]pyrimidin-7(6H)-one hydrochloride]
14 | 53 to 1000 | O=C(O)CCC(=O)N1CCC(n2ncc3nc(NCc4ccc(Cl)c(Cl)c4)[nH]c(=O)c32)CC1 [Compound 273, 4-(4-(5-((3,4-dichlorobenzyl)amino)-7-oxo-6,7-dihydro-1H-pyrazolo[4,3-d]pyrimidin-1-yl)piperidin-1-yl)-4-oxobutanoic Acid]
15 | 53 to 1000 | O=C([C@@H](O)[C@H](O)CO)N1CCC(n2ncc3nc(NCc4ccc(Cl)c(Cl)c4)[nH]c(=O)c32)CC1 [Compound 276, 5-((3,4-dichlorobenzyl)amino)-1-(1-((2S,3R)-2,3,4-trihydroxybutanoyl)piperidin-4-yl)-1H-pyrazolo[4,3-d]pyrimidin-7(6H)-one]
